This is an account of results in US12485118B2, “Combinations of GLP-1R and THRβ agonists and methods of use thereof” (Terns Pharmaceuticals, Inc., priority 2023, dated 2025).

The subject of series [1] is uncoupling protein 1 (UCP-1) expression in subcutaneous adipose tissue. As to the kind of experiment: UCP-1 expression in subcutaneous adipose tissue of DIO mice. The series is classed as in vivo, mouse. The protocol: Body weight, food and water intake are measured daily. Body composition is measured using EchoMRI. Subcutaneous fat is collected and weighed at study termination.
Male C57BL/6JRj mice (5 weeks of age, n=70) were fed a high fat diet (n=60, 60% HFD, D12492, Ssniff) for 24 weeks, or a lean-chow diet (n=10, Altromin 1324) before treatment start. HFD animals were randomized during week -1 based on body weight, glucose levels and fat tissue mass into 5 treatments groups. Lean mice (group 1) were treated with vehicle (QD+QD, PO+SC) and DIO mice were treated (QD+QD, PO+SC) as follow: group 2 received vehicle (PO+SC), group 3 received Compound 9 6 mg/kg, PO+vehicle (SC), group 4 received Semaglutide (30 nmol/kg, SC)+vehicle (PO), group 5 received Compound 9 (6 mg/kg, PO)+Semaglutide (30 nmol/kg, SC) and group 6 received Tirzepatide (30 nmol/kg, SC)+vehicle (PO). Body weight, food and water intake were measured daily from day -3, body composition (EchoMRI) was measured during week -1 and week 6; energy expenditure was assessed at study day 5-7 and at study day 34-36. Fasting blood glucose and insulin levels were measured at baseline and termination, while an oral glucose tolerance test was performed at week 4. […]

The subject of series [2] is male DIO mice. Nature of the series: 6 weeks of Compound 9 alone and in combination with semaglutide: body weight, food intake, body composition (EchoMRI) in male DIO mice at thermoneutrality. The series is classed as in vivo, mouse. The following applies: Compound 9 6 mg/kg PO combined with Semaglutide 30 nmol/kg SC. The method, then: (§1) Male C57BL/6JRj mice (5 weeks of age, n=70) were fed a high fat diet (n=60, 60% HFD, D12492, Ssniff) for 24 weeks, or a lean-chow diet (n=10, Altromin 1324) before treatment start. HFD animals were randomized during week -1 based on body weight, glucose levels and fat tissue mass into 5 treatments groups. Lean mice (group 1) were treated with vehicle (QD+QD, PO+SC) and DIO mice were treated (QD+QD, PO+SC) as follow: group 2 received vehicle (PO+SC), group 3 received Compound 9 6 mg/kg, PO+vehicle (SC), group 4 received Semaglutide (30 nmol/kg, SC)+vehicle (PO), group 5 received Compound 9 (6 mg/kg, PO)+Semaglutide (30 nmol/kg, SC) and group 6 received Tirzepatide (30 nmol/kg, SC)+vehicle (PO). Body weight, food and water intake were measured daily from day -3, body composition (EchoMRI) was measured during week -1 and week 6; energy expenditure was assessed at study day 5-7 and at study day 34-36. Fasting blood glucose and insulin levels were measured at baseline and termination, while an oral glucose tolerance test was performed at week 4. At termination, the M gastrocnemius muscle was weighted and collected for RNAseq analysis, while plasma, brain, liver, BAT, epidydimal and subcutaneous WAT depots were collected for sponsor.

Series [3] is described as follows: Plasma pharmacokinetics of Compound 9 and orforglipron in DIO hGLP-1R mice. The following applies: for AUC(0-t) / Cmax: hGLP-1R transgenic (expressing human GLP-1R). The method, then:
Test compounds were formulated in vehicle (10% [v/v]Solutol HS15+90% [v/v]saline) and mice were treated QD PO for 21 days with vehicle, Compound 9 (3 mg/kg), orforglipron (0.2 and 2 mg/kg), and Compound 9 (3 mg/kg) in combination with orforglipron (0.2 mg/kg). Body weight and food intake were measured daily, and mice were maintained on HFD throughout the study period. On Day 20 of the study, plasma samples were collected at predose (O), 2-, 4-, 8-, and 24-hours postdose for pharmacokinetic analyses of Compound 9, orforglipron, and combination treatment groups. Body mass composition was assessed on Day 19. Liver was collected and weighed at study termination and portions were preserved for steatosis assessment by histology. Subcutaneous fat was collected and weighed at study termination. A sample of subcutaneous fat tissue was assessed for UCP-1 expression by qPCR and Western blot analyses.

Series [4] deals with male DIO mice. Nature of the series: Energy expenditure (heat production, RER, oxygen consumption) in male DIO mice at thermoneutrality. The format is in vivo, mouse. The method, then:
as §1

The subject of series [5] is male DIO mice. As to the kind of experiment: Glycemic control: oral glucose tolerance test and plasma insulin in male DIO mice at thermoneutrality. As to conditions: week 6. The series is classed as in vivo, mouse. The protocol: On the day of the OGTT, random blood glucose and body weight of the mice are measured, mice are dosed with corresponding compounds or vehicle in the morning before fasting, then the mice are fasted for 6 hours, basal fasting glucose is measured by tail vein nick thereafter. Glucose is orally gavaged with 2 g/kg at a dose volume of 5 mL/kg. Blood glucose levels are measured at 0 (pre-dose), 15-, 30-, 60-, and 120-min post glucose dosing. The second dose is administrated after OGTT treatment.
Male C57BL/6JRj mice (5 weeks of age, n=70) were fed a high fat diet (n=60, 60% HFD, D12492, Ssniff) for 24 weeks, or a lean-chow diet (n=10, Altromin 1324) before treatment start. HFD animals were randomized during week -1 based on body weight, glucose levels and fat tissue mass into 5 treatments groups. […] Body weight, food and water intake were measured daily from day -3, body composition (EchoMRI) was measured during week -1 and week 6; energy expenditure was assessed at study day 5-7 and at study day 34-36. Fasting blood glucose and insulin levels were measured at baseline and termination, while an oral glucose tolerance test was performed at week 4. […]

A further series concerns DIO hGLP-1R mice. Nature of the series: Compound 9 in combination with orforglipron in DIO hGLP-1R mice: body weight, food intake, body mass composition, subcutaneous fat, liver weight. The following applies: Compound 9 3 mg/kg, orforglipron 0.2 and 2 mg/kg, combination 3 + 0.2 mg/kg; for body weight changes from baseline over time: PO QD 21 days; for terminal subcutaneous fat: study termination. The series is classed as in vivo, mouse. The protocol:
DIO hGLP-1R mice were housed at room temperature (21-25° C.) with a relative humidity of 40-70%. Temperature and relative humidity were monitored and recorded twice daily. An electronic time-controlled lighting system was used to provide a 12 h light/12 h dark cycle, 19:00 pm-7:00 am, lights out and enrichment toys were provided. The mice were fed high fat diet (HFD, Research Diets 12492, 60% kca, 1% fat) for >50 weeks to induce obesity. Mice were acclimated to once-daily (QD) oral dosing (per os, PO) for 1 week with body weight and food intake measured on consecutive 4 days prior to dosing start (Day 1). Body mass composition was measured by EchoMRI (Bruker Minispec LF90II) on Day 0 and mice were randomized to treatment groups (Table 5-1) based on baseline body weight, food intake, and body composition.
Body mass composition was assessed on Day 19. […] Subcutaneous fat was collected and weighed at study termination.

The next series concerns the target T1, rodent GLP-1R (Mus musculus, UniProt O35659).
T1 sequence (O35659 22-463): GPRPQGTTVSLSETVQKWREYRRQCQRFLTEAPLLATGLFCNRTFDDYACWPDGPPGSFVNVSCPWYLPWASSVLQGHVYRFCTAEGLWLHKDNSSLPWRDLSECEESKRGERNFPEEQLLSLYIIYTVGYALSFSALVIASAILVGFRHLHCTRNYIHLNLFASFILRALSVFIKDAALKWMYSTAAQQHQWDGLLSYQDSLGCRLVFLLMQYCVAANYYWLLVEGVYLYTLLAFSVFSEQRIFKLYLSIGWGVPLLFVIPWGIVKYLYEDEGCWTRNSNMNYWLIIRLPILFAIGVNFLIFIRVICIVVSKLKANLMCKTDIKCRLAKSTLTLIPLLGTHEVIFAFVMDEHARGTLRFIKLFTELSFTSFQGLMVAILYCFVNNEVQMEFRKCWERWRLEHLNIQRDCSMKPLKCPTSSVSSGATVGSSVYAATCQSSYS
As to conditions: cited from earlier work.

The next series relates to humans. As to conditions: cited from earlier work.

Each structure is given as a SMILES string. Entries after “also recorded” stand apart in the source; their conditions may differ. Like-named read-outs stand apart in the source and are kept apart here.

In general, AUC(0-t) refers to the area under the concentration-time curve up to a stated or last time point. By Cmax is commonly meant the peak of the concentration-time curve. As to `N#Cc1nn(-c2cc(Cl)c(Oc3n[nH]c(=O)c4ccccc34)c(Cl)c2)c(=O)[nH]c1=O` [Compound 9, 2-(3,5-dichloro-4-((4-oxo-3,4-dihydrophthalazin−1-yl)oxy)phenyl)-3,5-dioxo-2,3,4,5-tetrahydro-1,2,4-triazine-6-carbonitrile], in series [1], the “uncoupling protein 1 (UCP-1) expression” value is given as “partially restored the obesity induced lowering of UCP-1”. Besides, the average food intake entry with male DIO mice [2] was “normalized semaglutide-induced reduction in food intake”. Further, in series [3] (mouse, in vivo, po, 3 mg/kg), the AUC(0-t) was 19000 ng·h/mL and the Cmax was determined as 2480 ng/mL. Further, in series [3] (mouse, in vivo, po), the “exposure (dose proportionality, effect of combination)” value was “unaffected when dosed in combination with orforglipron”. Besides, in the series with male DIO mice [4] (after 5 weeks of treatment), the heat production entry was “increased both dark and light-phase heat production”. Moreover, in the series on male DIO mice [4] (assessed after week 4), the “energy expenditure (EE)” value is reported as “restored energy expenditure to normal (DIO Veh) levels when combined with semaglutide”. Besides, the plasma insulin level result in the series on male DIO mice [5] is given as “increased”. In the series with DIO hGLP-1R mice (Day 19, PO QD), the “fat mass change from baseline” value was “remained relatively unchanged” and the “lean mass change from baseline” value is listed as “negligible”. Further, the “body weight changes from baseline over time” value in the series on DIO hGLP-1R mice is reported as “remained relatively unchanged; also recorded: comparable to a 10-fold higher dose of orforglipron as monotherapy”. Besides, the terminal subcutaneous fat result in the series on DIO hGLP-1R mice (PO QD) is reported as “not significantly different from mice treated with vehicle”.

In the case of `Cc1cc(-n2nc3c(c2-n2ccn(-c4ccc5c(cnn5C)c4F)c2=O)[C@H](C)N(C(=O)c2cc4cc([C@H]5CCOC(C)(C)C5)ccc4n2[C@@]2(c4noc(=O)[nH]4)C[C@@H]2C)CC3)cc(C)c1F` [orforglipron], the “activity on rodent GLP-1R” value at rodent GLP-1R is “inactive”. The “unbound exposure AUC24h,u” value in series [3] (0.2 mg/kg daily in mice, equivalent to 6 mg/day in humans) is ~0.300 ng·h/mL; in series [3] (2 mg/kg daily in mice, equivalent to 45 mg/day in humans), ~1.60 ng·h/mL. In addition, the AUC(0-t) in series [3] (mouse, in vivo, po, 0.2 mg/kg) is 543 ng·h/mL; in series [3] (mouse, in vivo, po, 2 mg/kg), 2670 ng·h/mL. For the same molecule, the Cmax was 47.4 ng/mL in series [3] (mouse, in vivo, po, 0.2 mg/kg) and 251 ng/mL in series [3] (mouse, in vivo, po, 2 mg/kg). Further, the “exposure (dose proportionality, effect of combination)” value in series [3] (mouse, in vivo, po) is on record as “increased in a less than dose-proportional manner”; in series [3] (plasma, Day 20, PO QD) it was “largely unaffected when dosed in combination with Compound 9”. Besides, the “occurrence of total adverse events compared to placebo, OR” value is listed as 2.49 (95% CI: 1.25, 4.98) in the series on humans (12 mg daily dose); 2.23 (95% CI: 1.13, 4.43) in the series on humans (24 mg daily dose); 2.04 (95% CI: 1,08,3.84) in the series on humans (36 mg daily dose); 2.96 (95% CI: 1.41, 6.21) in the series with humans (45 mg daily dose). The “change in body weight at week 26” value in the series with humans (45 mg daily compared to 12, 24 or 36 mg/day) was “highest change in body weight”. The “total adverse events compared to placebo” value with humans (all doses (12, 24, 36, 45 mg daily)) is on record as “significantly higher”. Further, the “fat mass change from baseline” value with DIO hGLP-1R mice (Day 19, PO QD) is reported as “dose-dependent decrease in fat mass”. Further, the “body weight changes from baseline over time” value in the series with DIO hGLP-1R mice was “dose-dependent body weight decreases over time”. Moreover, the daily food intake result with DIO hGLP-1R mice (PO QD) is reported as “profoundly reduced in a dose-dependent manner during the first few days”. Also, the terminal subcutaneous fat entry with DIO hGLP-1R mice (PO QD) is “dose-dependent decrease in subcutaneous fat, although only the high dose was significantly different from vehicle treatment”.
